Data reported in article PMC9221371, “Flavonoid Derivatives as Potential Cholinesterase Inhibitors in Scopolamine-Induced Amnesic Mice: An In Vitro, In Vivo and Integrated Computational Approach” (Brain Sciences, 2022).
Where two headings read alike, the source gives them in different places.

Legend:
[1] = target: T1, AChE (electric eel type-VI-S) (Electrophorus electricus, UniProt O42275); test: biochemical; details: 25 °C, triplicate
T1 construct: purchased Sigma-Aldrich (Taufkirchen, Germany)
T1 sequence (O42275 24-633): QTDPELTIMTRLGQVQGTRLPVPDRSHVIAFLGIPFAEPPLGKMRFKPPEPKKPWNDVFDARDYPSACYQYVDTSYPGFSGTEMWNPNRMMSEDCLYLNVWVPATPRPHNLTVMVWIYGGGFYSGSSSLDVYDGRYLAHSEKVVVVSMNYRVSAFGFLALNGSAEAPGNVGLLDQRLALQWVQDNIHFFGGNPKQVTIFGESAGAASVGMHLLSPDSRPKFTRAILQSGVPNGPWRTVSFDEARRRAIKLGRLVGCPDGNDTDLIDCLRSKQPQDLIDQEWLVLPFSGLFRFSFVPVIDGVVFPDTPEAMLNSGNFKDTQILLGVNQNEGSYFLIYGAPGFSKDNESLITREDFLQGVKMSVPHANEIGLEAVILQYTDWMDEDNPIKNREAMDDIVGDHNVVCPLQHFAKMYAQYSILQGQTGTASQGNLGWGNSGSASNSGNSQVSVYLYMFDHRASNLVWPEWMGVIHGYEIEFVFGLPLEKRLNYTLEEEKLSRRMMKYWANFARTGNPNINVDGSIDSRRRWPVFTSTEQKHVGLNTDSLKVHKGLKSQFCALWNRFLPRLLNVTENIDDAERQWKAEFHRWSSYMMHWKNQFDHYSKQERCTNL
Method: (§1) Synthetic flavonoids F1–F5 previously synthesized by our group were used in the study.
(§2) For the determination of acetylcholinesterase inhibitory potentials, AChE and BuChE were used. […] To the tube were added DTNB (100 µL) and buffer (2.4 mL). The tube was incubated at 25 °C for 5 min as pre-incubation. The reaction was started by adding ATChI (40 µL), and the mixture was incubated at 25 °C for 20 min. The absorbance at 412 nm was measured spectrophotometrically in triplicate. […] The data were recorded in triplicate, and IC50 was calculated.

[2] = target: T2, BuChE (equine serum lyophilized) (Equus caballus, UniProt P81908); test: biochemical; details: triplicate; read-out: BChE IC50 (converted)
T2 construct: purchased Sigma-Aldrich (Taufkirchen, Germany); host or cells: equine serum
T2 sequence (P81908 whole entry): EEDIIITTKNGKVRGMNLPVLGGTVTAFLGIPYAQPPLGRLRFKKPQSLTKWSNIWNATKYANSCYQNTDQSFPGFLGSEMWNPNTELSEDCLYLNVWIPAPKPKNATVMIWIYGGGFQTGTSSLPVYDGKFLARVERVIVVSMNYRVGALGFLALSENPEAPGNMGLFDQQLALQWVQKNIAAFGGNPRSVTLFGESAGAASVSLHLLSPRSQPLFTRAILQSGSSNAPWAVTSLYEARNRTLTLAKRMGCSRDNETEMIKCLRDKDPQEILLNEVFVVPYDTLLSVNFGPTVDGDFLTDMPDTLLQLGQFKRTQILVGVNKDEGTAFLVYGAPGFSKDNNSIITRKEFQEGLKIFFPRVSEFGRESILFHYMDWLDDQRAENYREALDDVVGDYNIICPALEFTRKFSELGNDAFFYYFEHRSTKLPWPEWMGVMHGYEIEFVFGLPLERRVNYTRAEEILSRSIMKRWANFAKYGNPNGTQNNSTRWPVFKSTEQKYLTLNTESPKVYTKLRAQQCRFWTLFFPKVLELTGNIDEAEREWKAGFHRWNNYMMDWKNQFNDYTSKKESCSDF
Method: as §1, §2

[3] = tested on: Balb/C mice; test: Acute toxicity study; type: in vivo; details: n = 3; for ALP / AST / Creatinine / Glucose / Total Cholesterol / Triglyceride: blood; for Kidney Weight / Liver Weight / Total Weight: mice
Text: Two weeks before the experiment, the animals were acclimatized to laboratory conditions.
(§3) For assessment of acute toxicity of the flavones (F1–F5), animals (21 in number) were divided into groups of 3 animals each. The reported protocols by Lorke were followed with slight modification to perform tests in two phases. In the first phase, one (control) group of animals were given Tween-80 (2%), and oral doses of F1–F5 were given to the remaining groups, respectively, at various doses (mg/kg body weight). […] The animals were housed in plastic cages. After two weeks, the animals were sacrificed by euthanasia with isoflurane in a humane manner for assessment of the effects on total weight and weight of the vital organs. The biochemical parameters of blood and histological studies of vital organs (kidney and liver tissue) were also assessed. […] The preliminary pharmacological activity was assessed at various dose concentrations of F1–F5 (2.5–20 mg/kg b.w.) to determine the effective dose for assessment of cognitive function using animal models.

[4] = tested on: scopolamine-induced amnesic mice; test: Y-Maze Paradigm, spontaneous alternation in scopolamine-induced amnesic model; type: in vivo, Balb/C mice; details: for Spontaneous Alternation Performance: scopolamine 1 mg/kg i.p., n = 8
Text: as §3
(§4) The animals in the control (normal) and scopolamine amnesic groups were administered vehicle (Tween-80, 2%) only. Treated animals received F1–F5 suspended in Tween-80 (2%) p.o. at their respective doses for a period of 4 weeks. […] For assessing behavioral effects using the Y-Maze Paradigm and novel object discrimination (NOD) task, scopolamine (1 mg/kg, i.p.) was given to the different groups, 30 min after the respective treatments, to induce memory impairment (amnesia) in mice. All of the tests were performed between 8:00 a.m. and 6:00 p.m. to avoid sham results in the performance of the animals.
(§5) Behavioral tasks on the Y-Maze Paradigm and “NOD” tasks were conducted in the 5th week of study to determine learning and memory functions. The apparatus arena was cleaned with 70% ethanol during the inter-trial interval to prevent a confounding error due to the influence of odor [20, 21].
The Y-Maze task is a non-invasive and reliable behavioral test that was used for memory assessment of spontaneous alternation for F1–F5 based on previously reported protocols. A single session of Y-Maze was used to record the spontaneous alternation behavior of the animals to determine exploratory behavior and instant memory functioning. The apparatus was made of three arms in a “Y” shape (35 cm × 8 cm × 15 cm) with an equilateral triangular central area. In brief, each of the mice, previously naive to the maze, was placed at the terminal end of one arm. The animals were allowed to move and explore freely for 8 min through the maze. The number of arm entries was noted. One arm entry was considered when the hind paws of the animal were completely placed inside the arm, and the series of arm entries were documented. The spontaneous alternation in percent was calculated.

[5] = tested on: scopolamine-induced amnesic mice; test: Novel object discrimination (NOD) task in scopolamine-induced amnesic model; type: in vivo, Balb/C mice; details: scopolamine 1 mg/kg i.p., n = 8
Method: as §4, §5
Animals were challenged for the novel object discrimination task for F1–F5 as per previously reported protocols. After habituation and acclimatization, animals in each group had two consecutive object exploration trials (5 min each) for this test, with a break of 4 h in between two trials. In the familiarization phase (sample), the animals were challenged to explore two objects similar to each other. In the second phase (test), any of the two objects was changed by a new object. Exploration time in sec for the objects, including chewing, licking, sniffing or pointing the vibrissae of nose towards the object, was recorded. The discrimination ratio (%DI) was then determined using:(T novel object − T familiar object)/(T novel object + T familiar object) × 100(1)

[6] = tested on: brains of scopolamine-induced amnesic mice; test: Antioxidant enzyme activities and oxidative stress markers in brain homogenate; type: in vivo, Balb/C mice
Method: as §4
(§6) The brain was extracted, and a homogenate (10% w/v) in 0.1 M of phosphate buffer (pH 7.4) was prepared by centrifugation for the assessment of brain oxidative status and estimating brain acetylcholinesterase activity. Catalase (CAT), superoxide dismutase (SOD), glutathione (GSH) and level of lipid peroxidation (malondialdehyde, MDA) were quantified as oxidative stress markers.

[7] = target: T3, brain acetylcholinesterase (Mus musculus, UniProt P21836); type: in vivo; design: unit not given here; details: brain homogenate, n = 8
T3 construct: The brain was extracted, and a homogenate (10% w/v) in 0.1 M of phosphate buffer (pH 7.4) was prepared; from tissue; host or cells: mouse brain homogenate
T3 sequence (P21836 32-614): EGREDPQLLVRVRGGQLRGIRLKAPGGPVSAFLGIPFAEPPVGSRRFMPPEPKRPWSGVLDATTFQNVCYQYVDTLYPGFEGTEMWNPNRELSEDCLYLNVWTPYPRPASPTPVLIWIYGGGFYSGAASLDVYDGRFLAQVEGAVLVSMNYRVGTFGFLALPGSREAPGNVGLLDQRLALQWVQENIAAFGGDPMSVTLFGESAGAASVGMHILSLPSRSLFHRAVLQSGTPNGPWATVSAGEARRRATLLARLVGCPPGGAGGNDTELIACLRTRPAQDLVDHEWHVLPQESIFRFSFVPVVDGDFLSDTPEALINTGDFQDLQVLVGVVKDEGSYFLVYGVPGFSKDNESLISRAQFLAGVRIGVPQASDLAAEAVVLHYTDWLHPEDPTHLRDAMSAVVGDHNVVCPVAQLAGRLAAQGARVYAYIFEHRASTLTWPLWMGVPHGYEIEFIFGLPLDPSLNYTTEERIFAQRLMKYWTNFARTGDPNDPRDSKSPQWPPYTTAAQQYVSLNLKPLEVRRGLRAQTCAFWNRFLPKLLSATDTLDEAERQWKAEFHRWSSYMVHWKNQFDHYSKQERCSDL
Method: as §4, §6

[8] = 7.5 mg/kg b.w., n = 8, 7.5 mg/kg

## O=c1cc(-c2ccc(Cl)cc2)oc2ccccc12 [Compound F1]
[1]
  IC50: 644 µM
[2]
  IC50: 603 µM
[3]; 600 mg/kg b.w. oral
  ALP: 132.54 ± 2.78 U/L
  AST: 107.89 ± 2.01 U/L
  Creatinine: 0.36 ± 0.05 mg/dL
  Glucose: 85.51 ± 2.33 mg/dL
  Total Cholesterol: 103.19 ± 2.06 mg/dL
  Triglyceride: 95.20 ± 2.76 mg/dL
  Kidney Weight: 0.29 ± 0.19 g
  Liver Weight: 1.24 ± 0.21 g
  Total Weight: 21.82 ± 1.39 g
[3]; 1000 mg/kg b.w. oral
  ALP: 136.33 ± 2.39 U/L
  AST: 108.34 ± 2.66 U/L
  Creatinine: 0.38 ± 0.06 mg/dL
  Glucose: 86.98 ± 2.09 mg/dL
  Total Cholesterol: 102.76 ± 1.87 mg/dL
  Triglyceride: 94.78 ± 1.98 mg/dL
  Kidney Weight: 0.29 ± 0.18 g
  Liver Weight: 1.23 ± 0.26 g
  Total Weight: 22.93 ± 1.91 g
[3]; 2000 mg/kg b.w. oral
  ALP: 135.29 ± 4.17 U/L
  AST: 109.73 ± 1.98 U/L
  Creatinine: 0.34 ± 0.04 mg/dL
  Glucose: 86.45 ± 2.27 mg/dL
  Total Cholesterol: 102.05 ± 2.01 mg/dL
  Triglyceride: 96.22 ± 1.70 mg/dL
  Kidney Weight: 0.30 ± 0.20 g
  Liver Weight: 1.23 ± 0.24 g
  Total Weight: 21.79 ± 1.72 g
[3]; 3000 mg/kg b.w. oral
  ALP: 136.09 ± 3.12 U/L
  AST: 109.90 ± 2.09 U/L
  Creatinine: 0.29 ± 0.03 mg/dL
  Glucose: 85.72 ± 1.97 mg/dL
  Total Cholesterol: 101.28 ± 1.98 mg/dL
  Triglyceride: 97.41 ± 1.83 mg/dL
  Kidney Weight: 0.31 ± 0.27 g
  Liver Weight: 1.25 ± 0.29 g
  Total Weight: 22.71 ± 1.79 g
[4]; 7.5 mg/kg b.w. p.o. 4 weeks
  Spontaneous Alternation Performance: 49.90 ± 1.33%
[4]; 15 mg/kg b.w. p.o. 4 weeks
  Spontaneous Alternation Performance: 51.78 ± 1.45%
[4]; Table S1, dose 2.5 mg/kg b.w.
  Spontaneous alternation performance (preliminary, selection of doses): 37.02±2.11
[4]; Table S1, dose 5 mg/kg b.w.
  Spontaneous alternation performance (preliminary, selection of doses): 38.91±1.67
[4]; Table S1, dose 7.5 mg/kg b.w.
  Spontaneous alternation performance (preliminary, selection of doses): 49.12±1.45
[4]; Table S1, dose 10 mg/kg b.w.
  Spontaneous alternation performance (preliminary, selection of doses): 48.66±1.98
[4]; Table S1, dose 12.5 mg/kg b.w.
  Spontaneous alternation performance (preliminary, selection of doses): 48.98±2.01
[4]; Table S1, dose 15 mg/kg b.w.
  Spontaneous alternation performance (preliminary, selection of doses): 51.72±1.88
[4]; Table S1, dose 20 mg/kg b.w.
  Spontaneous alternation performance (preliminary, selection of doses): 52.03±2.03
[5]; 7.5 mg/kg b.w. p.o. 4 weeks
  discrimination index (%DI): 48.67 ± 1.57%
[5]; 15 mg/kg b.w. p.o. 4 weeks
  discrimination index (%DI): 51.11 ± 1.48%
[6]; 7.5 mg/kg b.w., n = 8
  GSH: 34.62 ± 1.50 μg/mg of Protein
  MDA: 16.39 ± 1.28 nmol/mg Protein
[6]; [8]
  CAT: 21.93 ± 1.37 U/mg of Protein
  SOD: 8.97 ± 1.12 U/mg of Protein
[6]; 15 mg/kg b.w., n = 8
  GSH: 35.70 ± 1.47 μg/mg of Protein
  MDA: 16.12 ± 1.47 nmol/mg Protein
[6]; 15 mg/kg b.w., n = 8, 15 mg/kg
  CAT: 22.31 ± 1.22 U/mg of Protein
  SOD: 9.12 ± 1.28 U/mg of Protein
[7]; 7.5 mg/kg b.w.
  level of AChE: 21.31 ± 0.53
[7]; 15 mg/kg b.w.
  level of AChE: 21.01 ± 0.61

## O=c1cc(-c2ccc(Cl)cc2Cl)oc2ccccc12 [Compound F2]
[1]
  IC50: 451 µM
[2]
  IC50: 361 µM
[4]; 7.5 mg/kg b.w. p.o. 4 weeks
  Spontaneous Alternation Performance: 47.13 ± 1.65%
[4]; 15 mg/kg b.w. p.o. 4 weeks
  Spontaneous Alternation Performance: 49.88 ± 1.28%
[6]; 7.5 mg/kg b.w., n = 8
  CAT: 22.83 ± 1.19 U/mg of Protein
  GSH: 34.93 ± 1.22 μg/mg of Protein
  MDA: 15.16 ± 1.21 nmol/mg Protein
  SOD: 9.25 ± 1.36 U/mg of Protein
[6]; 15 mg/kg b.w., n = 8
  CAT: 23.71 ± 1.45 U/mg of Protein
  GSH: 35.91 ± 1.39 μg/mg of Protein
  MDA: 14.90 ± 1.33 nmol/mg Protein
  SOD: 9.33 ± 1.45 U/mg of Protein
